Laboratory results published in patent publication US8450070B2, “Method for screening of cell-protecting agent” (Takeda Pharmaceutical Company Limited, priority 2007, dated 2013).

Experiments:
[1] = test system: human normal articular chondrocytes; assay: Cytotoxicity (cell viability, WST-8); format: cell-based; conditions: for cell viability (WST-8): 2 days, FIG. 7
Experimental: First, human normal articular chondrocytes were suspended to 5×10^4 cells/ml in a growth medium for articular chondrocytes. The cell culture was inoculated into a 96-well plate, followed by incubation at 37° C. for a day under 5% CO2. The test compound was added to the medium, followed by incubation at 37° C. for further 2 days under 5% CO2.

Hsp70 = Hsp70 expression-inducing activity in the presence of IL-1β stimulation (western blotting); format: cell-based; conditions: human normal articular chondrocytes, 10 ng/ml IL-1β, 2 days; FIG. 3
Experimental: In an embodiment of the step (2), the heat shock protein expression-inducing activity of a test compound was measured using a cell capable of expressing a heat shock protein. Hsp70 was used as the heat shock protein.
Human normal articular chondrocytes (manufactured by Clonetics Corporation) were grown by monolayer culture in a growth medium for articular chondrocytes (CGM, manufactured by Clonetics Corporation) and then suspended to 2.2×10^4 cells/ml in a 1:1 mixture of Dulbecco's modified Eagle's medium/Ham F12 medium. The cell culture was inoculated into a 12-well plate (manufactured by Asahi Techno Glass Corporation) by 3 ml per each well, followed by incubation at 37° C. for a day under 5% CO2. […]
After completion of the electrophoresis, the proteins in the gel were adsorbed onto a nitrocellulose membrane (Hybond-ECL; manufactured by Amersham Pharmacia Biotech Inc.) using HorizBlot (manufactured by Atto Co.). Each protein level was measured by western blotting using anti-Hsp70 antibody (manufactured by Transduction Laboratories) or anti-β-actin antibody (manufactured by Sigma, Inc.) as a primary antibody and horseradish peroxidase-labeled anti-mouse IgG antibody (manufactured by Kirkegaard & Perry Laboratories) as a secondary antibody. β-Actin was used to verify adsorption of the proteins onto the nitrocellulose membrane.

[2] = test system: human normal articular chondrocytes; assay: Cell protecting activity against NOR3-induced apoptosis (MTT); format: cell-based; conditions: 10 ng/ml IL-1β, 110 μM NOR3, human normal articular chondrocytes; FIG. 6
Experimental: First, human normal articular chondrocytes were suspended to 4×10^4 cells/ml in a growth medium for articular chondrocytes. The cell culture was inoculated into a 96-well plate, followed by incubation at 37° C. for a day under 5% CO2. The medium was exchanged to a 1:1 mixture of Dulbecco's modified Eagle's medium/Ham F12 medium. The test compound and 10 ng/ml of […] were added to the medium, followed by further incubation at 37° C. for a day under 5% CO2. Next, 110 μM nitrogen monoxide-releasing reagent, i.e., (±)-(E)-4-ethyl-2-[(E)-hydroximino]-5-nitro-3-hexenamide (NOR3; manufactured by Dojindo) was added and the mixture was incubated for a day to induce apoptosis of the cells. After completion of the incubation, a viability of the cells was determined using 3-(4,5-dimethylthiazol-2-yl)-2,5-diphenyltetrazorium bromide (MTT; manufactured by Dojindo). […] Compound A was verified to have an excellent cell protecting activity.

His2-hHsp90α protein = target: T1, His2-hHsp90α protein (Homo sapiens, UniProt P07900); assay: Inhibition of binding of [3H]-Compound A to immobilized His2-hHsp90α (SPA beads); conditions: 40 nM [3H]-Compound A, various concentrations of test compound; FIG. 2
T1 construct: the hHsp90α gene was excised from pET28b-hHsp90α using the BamHI cleavage site and the Bpu1102I cleavage site; made in house; host or cells: Escherichia coli BL21 (DE3), plasmid pET15b-hHsp90α
Experimental: In another embodiment of the step (1) of the screening method according to the present invention, measuring and comparing (i) the binding level of immobilized Hsp90 to a labeled imidazothiazine derivative in the absence of a test compound and (ii) the binding level of immobilized Hsp90 to a labeled imidazothiazine derivative in the presence of a test compound were performed.
Purified human Hsp90α protein (His2-hHsp90a) tagged with histidine at the N terminus through using Escherichia coli was employed as Hsp90.
The mixture was reacted overnight at 4° C. in a 96-well LumiNunc plate (manufactured by Nunc, Inc.). The above procedure gave immobilized Hsp90 in which the His2-hHsp90α protein was bound to Ysi (2-5 μm) copper his-tag SPA beads via histidine tag.

Hsp90/HSF-1 complex = target: T2, Hsp90/HSF-1 complex (Homo sapiens, UniProt P07900); assay: Hsp90/HSF-1 complex disrupting activity (immunoprecipitation from chondrocyte lysate, western blotting); format: biochemical; conditions: 1 μM compound, 30 minutes, FIG. 4, lane 3
T2 construct: host or cells: human normal articular chondrocytes (lysate)
Experimental: In another embodiment of the step (2), the activity of a test compound to disrupt the Hsp90/HSF-1 complex was measured. The substance having the activity to disrupt Hsp90/HSF-1 complex is expected to show the heat shock protein expression-inducing activity.
Human normal articular chondrocytes (manufactured by Clonetics) were washed with PBS and dissolved in RIPA buffer solution (50 mM Tris-HCl, pH 8.0, 150 mM NaCl, 1% NP-40, 0.1% SDS and 0.5% deoxycholic acid) containing a proteinase inhibitor (Complete; Boehringer Mannheim). After the solution was centrifuged at 16,000×g for 10 minutes, the supernatant was used as the lysate containing the Hsp90/HSF-1 complex. […]
After completion of the electrophoresis, the proteins in the gel were adsorbed onto a nitrocellulose membrane (Hybond-ECL; manufactured by Amersham Pharmacia Biotech Inc.) using HorizBlot (manufactured by Atto Co.). Each protein level was measured by western blotting using anti-HSF-1 antibody (manufactured by StressGen) or anti-Hsp90 antibody (manufactured by Transduction Laboratories) as a primary antibody and horseradish peroxidase-labeled anti-rabbit IgG antibody (manufactured by Cell Signaling Technology) or horseradish peroxidase-labeled anti-mouse IgG antibody (manufactured by Kirkegasrd & Perry Laboratories) as a secondary antibody.

[3] = test system: Hsp90 client protein such as glucocorticoid receptor, Akt, cyclin dependent kinase 4; assay: Hsp90 client protein degradation-inducing activity (western blotting); format: cell-based, human
Experimental: Human normal articular chondrocytes were suspended to 0.5×10^5 cells/ml in a growth medium for articular chondrocytes. The cell culture was inoculated into a 6-well plate (manufactured by Falcon Co., Ltd.) by 2 ml per each well, followed by incubation at 37° C. for a day under 5% CO2. The medium was exchanged to a 1:1 mixture of Dulbecco's modified Eagle's medium/Ham F12 medium, followed by further incubation at 37° C. for a day under 5% CO2.
The test compound was added to the culture medium and the cells were further incubated for about 18 hours at 37° C. under 5% CO2. After completion of the incubation, the cells were washed once with phosphate-buffered saline (PBS) and 200 μl of a cell lysate buffer (10 mM Tris(hydroxymethyl)aminomethane, pH 7.4, 150 mM NaCl, 1 mM EDTA.2Na, 1 mM EGTA, 0.5 mM (p-aminophenyl)methanesulfonyl fluoride hydrochloride, 200 μM sodium β-glycerophosphate n-hydrate, 20 mM NaF, 2 mM sodium diphosphate decahydrate, 10 μg/ml aprotinin, 10 μg/ml leupeptin, 1% Triton X-100, 0.5% Nonidet P40, 0.1% SDS and 1 mM o-vanadate) was added thereto. After the cell debris was scraped from the plate using a cell scraper, the cell lysate buffer was recovered. The recovered cell lysate buffer was mixed with the equal volume of a sample buffer (Tris-SDS-ME Sample Buffer; manufactured by Daiichi Pure Chemicals). […]

His-hHsp90α = target: T3, His-hHsp90α (Homo sapiens, UniProt P07900); assay: Inhibition of binding of His-hHsp90α to immobilized Compound B (SDS-PAGE, silver stain); conditions: various concentrations of test compound; FIG. 1
T3 construct: the Hsp90α coding region was amplified from a human skeletal complementary DNA (cDNA) library; His tag (N); made in house; host or cells: Escherichia coli BL21 (DE3), plasmid pET28b-hHsp90α
Experimental: In an embodiment of the step (1) in the screening method of the invention, the steps of measuring and comparing (i) the binding level of an immobilized imidazothiazine derivative to Hsp90 in the absence of a test compound and (ii) the binding level of an immobilized imidazothiazine derivative to Hsp90 in the presence of a test compound, were performed as follows.
Purified human Hsp90α protein (His-hHsp90α) tagged with histidine at the N terminus through using Escherichia coli was employed as Hsp90.
First, 10 μg of His-hHsp90α was reacted with a test compound of various concentrations in 0.2 ml of a binding buffer (10 mM Tris-HCl, pH 7.5, 20% glycerol, 1 mM EDTA, 500 mM NaCl and 1 mM DTT) containing 0.5% DMF for 30 minutes.

Row | binding level of the His2-hHsp90α protein to [3H]-compound A (His2-hHsp90α protein) | co-precipitation of HSF-1 with Hsp90 (anti-Hsp90 antibody immunoprecipitation) (Hsp90/HSF-1 complex) | binding level of the His-hHsp90α protein to the immobilized Compound B (His-hHsp90α) | Compound | cell viability (WST-8) ([1]; at concentrations of 30 nM or higher) | Hsp70 protein level (Hsp70) | apoptosis / cell viability after NOR3 (MTT) [2] | cell viability (WST-8) ([1]; at concentrations of 10 μM or less) | cytotoxicity relative to that of GA ([1]; ratio relative to GA) | intracellular protein level of Hsp90 client protein (glucocorticoid receptor, Akt, cyclin dependent kinase 4) ([3]; human normal articular chondrocytes, about 18 hours, at concentrations of 10 μM or less, FIG. 5) | client protein degradation-inducing activity as compared to GA ([3]; ratio relative to GA)
1 | – | – | – | COC1=C2C[C@@H](C)C[C@H](OC)[C@H](O)[C@@H](C)/C=C(\C)[C@H](OC(N)=O)[C@@H](OC)/C=C\C=C(/C)C(=O)NC(=CC1=O)C2=O (relative stereo) [GA, [18S-(4E,5Z,8R*,9R*,10E,12R*,13S*,14R*,16S*)]-9-[(aminocarbonyl)oxy]-13-hydroxy-8,14,19-trimethoxy-4,10,12,16-tetramethyl-2-azabicyclo[16.3.1.]docosa-4,6,10,18,21-pentan-3,20,22-trion, reference compound] | greatly decreased | clearly increased | decreased the cell viability | – | – | – | –
2 | dose-dependently decreased | not observed | dose-dependently decreased | Cc1ccc(S(=O)(=O)/N=c2\[nH]c(=O)n3c(C)c(C)sc(SCCCC(F)(F)C(F)(F)F)c2-3)cc1 [Compound A, N-[(1Z)-5,6-dimethyl-3-oxo-8-[(4,4,5,5,5-pentafluoropentyl)sulfanyl]-2,3-dihydro-1H-imidazo[5,1-c][1,4]thiazin-1-ylidene]-4-methylbenzenesulfonamide] | – | clearly increased | dose-dependently suppressed the apoptosis | did not affect | 1/300 | did not affect | less than 1/1000
